Experimental data reported in patent US20120135089A1, “E3 LIGASE INHIBITORS” (priority 2009, published 2012).
“Also recorded” adds a separate entry of the source.

Key:
MdmX = assay: etoposide-induced MdmX degradation in MCF7 cells (Western blot); assay type: cell-based, human; details: etoposide 30 μg/ml, 16 hours
Method: Cells were plated in 384-well format and treated with MG132 (2 hours) or cycloheximide (30 minutes). Steadylite luminescence buffer (PerkinElmer) was added and the relative luminescence levels determined on a Victor3 Plate Reader. Each graph represents the median of 5 replicates normalized to a no treatment control, and one standard deviation is shown. […] The graphs and EC50 values were determined using Graphpad PRISM®. […] U2OS, RKO, and HCT116 cells (p53 wild-type) were incubated with 5 μg/ml (14 μM) of MEL23, 5 μg/ml (15 μM) of MEL24, or 10 μM of MG132 for 6 hours. Cells were lysed and analyzed by Western blotting using anti-Mdm2, anti-p53, and anti-eIF4E antibodies. NT indicates a no treatment control. […] MCF7 cells (p53 wild-type) were incubated with 30 μg/ml (51 μM) etoposide alone or in combination with 50 μM AlIn or 5 μg/ml (14 μM) MEL23, or 5 μg/ml (15 μM) MEL24 for 16 hours. Cells were lysed and analyzed by Western blotting using anti-MDMX and anti-actin antibodies.
(§1) Cells were seeded and treated with the indicated compound(s). Cells were lysed after each time point in a buffer of 50 mM TrisHCl pH 7.5, 200 mM NaCl, 0.5% NP-40, and 1 complete mini EDTA-free protease inhibitor cocktail tablet per 10 mL of buffer (Roche, Cat. No. 8360170). Protein content was quantified using a Biorad protein assay reagent (Bio-Rad Laboratories, Hercules, Calif., Cat. No. 500-0006). SDS sample buffer was added to the samples, and the mixture was boiled for 5 minutes. Equal amounts of protein were resolved on a 1D SDS-PAGE gel. Following separation proteins were transferred to nitrocellulose membrane, blocked with 5% milk, and then incubated with primary antibody overnight at 4° C. The membrane was incubated with secondary-HRP antibody for 45 minutes at room temperature and developed with SuperSignal West Pico Substrate (Pierce, Rockford, Ill., Cat. No. 34080).

full-length Flag-Mdm2 = target: T1, full-length Flag-Mdm2 (Homo sapiens, UniProt Q00987); assay: in vitro ubiquitination assay, full-length Flag-Mdm2; assay type: biochemical
T1 construct: 100 ng of full-length Flag-Mdm2; made in house; host or cells: Sf9 insect cells (baculovirus; virus a gift from S. Grossman)
T1 sequence (Q00987 whole entry): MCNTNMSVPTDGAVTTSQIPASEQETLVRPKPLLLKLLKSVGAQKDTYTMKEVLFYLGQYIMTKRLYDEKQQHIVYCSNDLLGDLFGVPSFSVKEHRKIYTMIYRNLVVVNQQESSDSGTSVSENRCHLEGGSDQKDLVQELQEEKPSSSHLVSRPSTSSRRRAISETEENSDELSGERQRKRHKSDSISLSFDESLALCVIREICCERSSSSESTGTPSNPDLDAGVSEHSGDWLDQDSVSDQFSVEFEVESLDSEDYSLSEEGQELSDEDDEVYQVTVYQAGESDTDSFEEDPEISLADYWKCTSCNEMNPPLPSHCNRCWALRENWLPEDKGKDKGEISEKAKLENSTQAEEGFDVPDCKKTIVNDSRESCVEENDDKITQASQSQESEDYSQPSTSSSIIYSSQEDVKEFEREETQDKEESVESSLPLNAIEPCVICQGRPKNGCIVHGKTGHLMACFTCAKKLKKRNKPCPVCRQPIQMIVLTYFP
Method: These assays were performed with 100 ng of full-length Flag-Mdm2 or 200 ng of Flag-Mdm2/HA-MdmX complexes (100 ng of each protein as each are present in a 1:1 ratio, when purified), ^32P-labeled ubiquitin, UbCH5c, and E1. Following a 30-minute incubation at 37° C., reactions were terminated and resolved on a SDS-PAGE gel followed by autoradiography. PC indicates positive control, and NC indicates negative control with UbCH5C eliminated from the reaction. The gels were quantified by phosphoimaging using ImageQuant software (GE Healthcare Bio-Sciences Corp., Piscataway, N.J.). […] Reactions were performed as in FIG. 11A except 500 ng GST-Mdm2 (residues 400-491) and GST-MdmX (residues 400-490) were used for ubiquitin polymerization. […]
Full-length Mdm2 in vitro ubiquitination reactions were performed in 15 μl reaction mixtures containing 50 mM TrisHC1 pH 7.5, 5 mM MgCl2, 2 mM NaF, 2 mM ATP, 0.6 mM DTT, 50 ng E1 (Boston Biochem, Cat. No. E-305), 1 μg PK-ubiquitin, 50 ng His-UbCH5C, and 100 ng Flag-Mdm2. […] The products were resolved by SDS-PAGE and analyzed by Western blot with anti-p53, anti-Mdm2 SMP14, 2A10, 3G5 mix, or anti-MdmX antibodies. […]
Referring now to FIG. 28b, as shown, Mdm2 in vitro ubiquitination is not inhibited by MEL17 treatment. […] Samples were analyzed by Western blotting with anti-Mdm2 antibodies. […]

[1] = test system: U2OS (p53 wild-type) and H1299 (p53 null) cells; assay: combination viability assay, excess over Bliss independence; assay type: cell-based, human
Method: All values were normalized to no treatment. […] Percent cell death was determined by normalization to a no treatment control. Bliss Independence was determined by the formula C=A+B−A*B, where A is treatment with one compound alone and B is treatment with the second compound alone.
Cells were then treated with the indicated concentration of compound. […] Fluorescence intensity was determined using the Victor3 Plate Reader (PerkinElmer). Median percent survival or growth inhibition was calculated and normalized to a no treatment control.
The excess over the predicted Bliss independence was determined by subtracting the predicted Bliss effect for each treatment from the experimentally determined growth inhibition for the same treatment.

Mdm2 = assay: Western blot of Mdm2 in MEFs; assay type: cell-based, mouse; details: 5 μg/ml (14 μM), 6 hours
Method: MEFs were treated with 5 μg/ml (14 μM) of MEL23 for 6 hours. Cells were lysed and analyzed by Western blotting using anti-Mdm2 and anti-eIF4E antibodies. NT indicates a no treatment control.
as §1

| Compound | etoposide-induced MdmX degradation (MdmX) | Mdm2 ligase activity (full-length Mdm2 in vitro ubiquitination) (full-length Flag-Mdm2) | synergy of MEL23 with Nutlin-3 on viability ([1]; 48 hours, excess over Bliss independence) | synergy with DNA damaging agents in p53-null cells ([1]; H1299 (p53-null)) | synergy with camptothecin or etoposide on viability ([1]; U2OS and H1299, 48 hours, excess over Bliss independence) | Mdm2 level in MEFs (Mdm2) |
| --- | --- | --- | --- | --- | --- | --- |
| CCCCn1c(=O)[nH]c(O)c(C2NCCc3c2[nH]c2ccccc32)c1=O (stereo not shown) [MEL23] | degradation could be prevented | little to no inhibitory effect | Synergy between MEL23 and Nutlin-3 occurred, but to a lesser extent than the combination of MEL23 and DNA-damaging agents | synergized with DNA damaging agents; also recorded: cooperated with DNA-damaging agents in p53-null cells to a small, yet reproducible, extent | synergistic effect on viability | increased Mdm2 in MEFs |
| Cn1c(O)c(C2NCCc3c2[nH]c2ccccc32)c(=O)n(C)c1=O (stereo not shown) [MEL24] | degradation could be prevented | – | – | – | – | – |
